Reference: US9611251B2, “Substituted piperidine compounds and their use as orexin receptor modulators” (Janssen Pharmaceutica NV, priority 2013, dated 2017)
Counter-ions that a name gives are not always drawn.

target: human orexin 2 receptor (Homo sapiens (Human), UniProt O43614); assay: Human orexin 2 receptor radioligand binding ([3H]-EMPA); conditions: averages of 2-20 runs, read-out: hOX2 Ki
Description: (§1) Data are analyzed using pc-Sandy macro and graphed on Graphpad Prism 5. For analysis, each concentration point is averaged from triplicate values and the averaged values are plotted on Graphpad Prism. The IC50 was determined by applying the following equation (GraphPad Prism 5.0, SanDiego) for one site competition where X=log (concentration) and Y=specific binding. Top denotes the total [^3H]-(1-(5-(2-fluoro-phenyl)-2-methyl-thiazol-4-yl)-1-((S)-2-(5-phenyl-(1,3,4)oxadiazol-2-ylmethyl)-pyrrolidin-1-yl)-methanone) binding, bottom denotes the nonspecific [^3H]-(1-(5-(2-fluoro-phenyl)-2-methyl-thiazol-4-yl)-1-((S)-2-(5-phenyl-(1,3,4)oxadiazol-2-ylmethyl)-pyrrolidin-1-yl)-methanone) binding. Graphpad Prism calculates Ki value from IC50 and the pre-determined Kd values for [^3H]-(1-(5-(2-fluoro-phenyl)-2-methyl-thiazol-4-yl)-1-((S)-2-(5-phenyl-(1,3,4)oxadiazol-2-ylmethyl)-pyrrolidin-1-yl)-methanone) and [3H]-EMPA. The Ki for each compound is then uploaded into 3DX. Each run comprises individual compounds in triplicate.
Human Orexin 2 Receptor Radioligand Binding Studies
HEK293 stably expressing human orexin 2 receptor (Genebank accession number NM_001526) were grown to confluency in DMEM (Hyclone, cat #SH30022), 10% FBS, 1×Pen/Strep, 1× NaPyruvate, 10 mM HEPES, 600 ug/ml G418 media on 150 cm^2 tissue culture plates, washed with 5 mM EDTA in PBS (HyClone Dulbecco's Phosphate Buffered Saline 1× with Calcium and Magnesium, Cat #SH30264.01, hereafter referred to simply as PBS) and scraped into 50 ml tubes. After centrifugation (2K×G, 5 min at 4° C.), the supernatant was aspirated and the pellets frozen and stored at −80° C. […] Each cell pellet from a 15 cm plate was resuspended in 10 mL, stored on ice, and homogenized for 45 sec just prior to addition to the reactions. Competition binding experiments in 96 well polypropylene plates were performed using [^3H]-EMPA (Moraveck Corporation, specific activity=29.6 Ci/mmol), diluted to a 5 nM concentration in PBS (2 nM final concentration). […] The final concentration of DMSO in the reactions is equal to or less than 0.1%. Total and nonspecific binding was determined in the absence and presence of 10 μM almorexant. The total volume of each reaction is 200 μL (20 μL of diluted compounds, 80 μL of [^3H]-EMPA diluted in PBS and 100 μL of the cell suspension). […] The plates were washed 3 times by aspirating 30 ml PBS through the plates. Plates were dried in 55° C. oven for 60 min, scintillation fluid was added, and the radioactivity was counted on a Topcount (Packard).

Sequence of human orexin 2 receptor (O43614 whole entry): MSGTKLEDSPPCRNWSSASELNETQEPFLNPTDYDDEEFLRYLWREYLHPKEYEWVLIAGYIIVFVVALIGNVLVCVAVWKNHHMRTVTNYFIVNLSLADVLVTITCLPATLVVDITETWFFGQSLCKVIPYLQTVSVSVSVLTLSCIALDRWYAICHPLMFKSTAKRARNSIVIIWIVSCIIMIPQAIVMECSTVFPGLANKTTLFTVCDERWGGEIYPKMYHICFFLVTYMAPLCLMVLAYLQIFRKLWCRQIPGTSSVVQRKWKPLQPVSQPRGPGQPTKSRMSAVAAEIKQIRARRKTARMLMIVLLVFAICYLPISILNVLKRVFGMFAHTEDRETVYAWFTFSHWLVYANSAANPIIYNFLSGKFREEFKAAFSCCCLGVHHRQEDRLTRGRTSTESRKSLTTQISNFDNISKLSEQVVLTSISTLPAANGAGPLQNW

Compound | Ki [nM]
Cc1ccc(-c2ncccn2)c(C(=O)N2CCC[C@@H](Nc3cc(C)nc(C(F)(F)F)n3)[C@@H]2C)c1 (racemic) [Example 7, (±)-trans-(5-methyl-2-(pyrimidin-2-yl)phenyl)(2-methyl-3-((6-methyl-2-(trifluoromethyl)pyrimidin-4-yl)amino)piperidin-1-yl)methanone] | 243
Cc1cc(N[C@@H]2CCCN(C(=O)c3cc(F)ccc3-c3ncccn3)[C@H]2C)nc(C(F)(F)F)n1 (racemic) [Example 9, (±)-trans-(5-fluoro-2-(pyrimidin-2-yl)phenyl)(2-methyl-3-((6-methyl-2-(trifluoromethyl)pyrimidin-4-yl)amino)piperidin-1-yl)methanone] | 2260
Cc1ccc(-n2nccn2)c(C(=O)N2CCC[C@@H](Oc3ccc(C(F)(F)F)cn3)[C@@H]2C)n1 (racemic) [Example 109, (±)-trans-(2-methyl-3-((5-(trifluoromethyl)pyridin-2-yl)oxy)piperidin-1-yl)(6-methyl-3-(2H-1,2,3-triazol-2-yl)pyridin-2-yl)methanone] | 463
Cc1ccc(C(=O)N2CCC[C@@H](Nc3cnc(Cl)cn3)[C@@H]2C)c(-n2nccn2)c1 (relative stereo) [Example 180, ((2S*,3R*)-3-((5-chloropyrazin-2-yl)amino)-2-methylpiperidin-1-yl)(4-methyl-2-(2H-1,2,3-triazol-2-yl)phenyl)methanone] | 1900
COc1ccc(C(=O)N2CCC[C@@H](Nc3ncc(Cl)cn3)[C@@H]2C)c(-n2nccn2)c1 (relative stereo) [Example 185, ((2 S*,3R*)-3-((5-chloropyrimidin-2-yl)amino)-2-methylpiperidin-1-yl)(4-methoxy-2-(2H-1,2,3-triazol-2-yl)phenyl)methanone] | 8600
COc1ccc(C(=O)N2CCC[C@@H](Nc3cnc(Cl)cn3)[C@@H]2C)c(-n2nccn2)c1 (relative stereo) [Example 186, ((2S*,3R*)-3-((5-chloropyrazin-2-yl)amino)-2-methylpiperidin-1-yl)(4-methoxy-2-(2H-1,2,3-triazol-2-yl)phenyl)methanone] | 9400
COc1ccc(C(=O)N2CCC[C@@H](Nc3ccc(C(F)(F)F)cn3)[C@@H]2C)c(Cl)n1 (relative stereo) [Example 193, (2-chloro-6-methoxypyridin-3-yl)((2S*,3R*)-2-methyl-3-((5-(trifluoromethyl)pyridin-2-yl)amino)piperidin-1-yl)methanone] | > 10000
CCOc1ccc(C)nc1C(=O)N1CCC[C@@H](Nc2ccc(C(F)(F)F)cn2)[C@@H]1C (relative stereo) [Example 194, (3-ethoxy-6-methylpyridin-2-yl)((2S*,3R*)-2-methyl-3-((5-(trifluoromethyl)pyridin-2-yl)amino)piperidin-1-yl)methanone] | 315
Cc1ccc(C(=O)N2CCC[C@@H](Nc3nnc(C(F)(F)F)s3)[C@@H]2C)c(-n2nccn2)n1 (relative stereo) [Example 196, (6-methyl-2-(2H-1,2,3-triazol-2-yl)pyridin-3-yl)((2S*,3R*)-2-methyl-3-((5-(trifluoromethyl)-1,3,4-thiadiazol-2-yl)amino)piperidin-1-yl)methanone] | > 10000
C[C@H]1[C@H](Nc2ncc(C(F)(F)F)cn2)CCCN1C(=O)c1cccc(F)c1-c1ncccn1 (relative stereo) [Example 200, (3-fluoro-2-(pyrimidin-2-yl)phenyl)((2S*,3R*)-2-methyl-3-((5-(trifluoromethyl)pyrimidin-2-yl)amino)piperidin-1-yl)methanone] | 985
C[C@H]1[C@H](Nc2ncc(C(F)(F)F)cn2)CCCN1C(=O)c1ccc(F)cc1-c1ncccn1 (relative stereo) [Example 202, (4-fluoro-2-(pyrimidin-2-yl)phenyl)((2S*,3R*)-2-methyl-3-((5-(trifluoromethyl)pyrimidin-2-yl)amino)piperidin-1-yl)methanone] | 1500
C[C@H]1[C@H](Nc2cnc(C(F)(F)F)cn2)CCCN1C(=O)c1cccc(F)c1-c1ncccn1 (relative stereo) [Example 207, (3-fluoro-2-(pyrimidin-2-yl)phenyl)((2S*,3R*)-2-methyl-3-((5-(trifluoromethyl)pyrazin-2-yl)amino)piperidin-1-yl)methanone] | 385
C[C@H]1[C@H](Oc2ccc(C(F)(F)F)cn2)CCCN1C(=O)c1ncccc1-c1ncccn1 (relative stereo) [Example 210, ((2S*,3R*)-2-methyl-3-((5-(trifluoromethyl)pyridin-2-yl)oxy)piperidin-1-yl)(3-(pyrimidin-2-yl)pyridin-2-yl)methanone] | 742
Cc1ccc(C(=O)N2CCC[C@@H](Nc3nc4ccccc4o3)[C@@H]2C)c(-n2nccn2)n1 [Example 75, ((2S,3R)-3-(benzo[d]oxazol-2-ylamino)-2-methylpiperidin-1-yl)(6-methyl-2-(2H-1,2,3-triazol-2-yl)pyridin-3-yl)methanone] | 8950
C[C@H]1[C@H](Nc2ccc(Cl)cn2)CCCN1C(=O)c1ccccc1-n1nccn1 [Example 100, (2-(2H-1,2,3-triazol-2-yl)phenyl)((2S,3R)-3-((5-chloropyridin-2-yl)amino)-2-methylpiperidin-1-yl)methanone] | 190
Cc1ccc(-n2nccn2)c(C(=O)N2CCC[C@@H](Oc3ccc(C(F)(F)F)cn3)[C@@H]2C)n1 [Example 108, ((2S,3R)-2-methyl-3-((5-(trifluoromethyl)pyridin-2-yl)oxy)piperidin-1-yl)(6-methyl-3-(2H-1,2,3-triazol-2-yl)pyridin-2-yl)methanone] | 301
Cc1cccc(C(=O)N2CCC[C@@H](Oc3ncc(Cl)cn3)[C@@H]2C)c1-n1nccn1 [Example 163, ((2S,3R)-3-((5-chloropyrimidin-2-yl)oxy)-2-methylpiperidin-1-yl)(3-methyl-2-(2H-1,2,3-triazol-2-yl)phenyl)methanone] | 1050

target: rat orexin 1 receptor (Rattus norvegicus, UniProt P56718); assay: Rat orexin 1 receptor radioligand binding; conditions: not given
Description: as §1
Rat and Human Orexin 1 Receptor Radioligand Binding Studies
After centrifugation (2K×G, 5 min at 4° C.), the supernatant was aspirated and the pellets frozen and stored at −80° C. […] Each cell pellet from a 15 cm plate was resuspended in 10 mL, stored on ice, and homogenized for 45 sec prior to addition to the reactions. Competition binding experiments in 96 well polypropylene plates were performed using [^3H]-(1-(5-(2-fluoro-phenyl)-2-methyl-thiazol-4-yl)-1-((S)-2-(5-phenyl-(1,3,4)oxadiazol-2-ylmethyl)-pyrrolidin-1-yl)-methanone) (Moraveck Corporation, specific activity=35.3 Ci/mmol), diluted to a 10 nM concentration in PBS (4 nM final). […] The final concentration of DMSO in the reactions is equal to or less than 0.1%. Total and nonspecific binding was determined in the absence and presence of 10 μM almorexant. The total volume of each reaction is 200 μL (20 μL of diluted compounds, 80 μL of [^3H]-(1-(5-(2-fluoro-phenyl)-2-methyl-thiazol-4-yl)-1-((S)-2-(5-phenyl-(1,3,4)oxadiazol-2-ylmethyl)-pyrrolidin-1-yl)-methanone) diluted in PBS and 100 μL of the cell suspension). […] The plates were washed 3 times by aspirating 30 ml PBS through the plates. Plates were dried in 55° C. oven for 60 min, scintillation fluid was added, and the radioactivity was counted on a Topcount (Packard).

Compound | Ki [nM]
Cc1ccc(-c2ncco2)c(C(=O)N2CCC[C@@H](Nc3ccc(C(F)(F)F)cn3)[C@@H]2C)n1 [Example 25, ((2S,3R)-2-methyl-3-((5-(trifluoromethyl)pyridin-2-yl)amino)piperidin-1-yl)(6-methyl-3-(oxazol-2-yl)pyridin-2-yl)methanone hydrochloride] | 12

same assay, conditions: rat orexin 1 receptor radioligand binding; averages of 2-20 runs; read-out: rOX1 Ki

Compound | Ki [nM]
Cc1ccc(C(=O)N2CCC[C@@H](Nc3ccc(C(F)(F)F)cn3)[C@@H]2C)c(-n2nccn2)c1 (racemic) [Example 13, (±)-trans-(4-methyl-2-(2H-1,2,3-triazol-2-yl)phenyl)(2-methyl-3-((5-(trifluoromethyl)pyridin-2-yl)amino)piperidin-1-yl)methanone] | 16
COc1ccc(C(=O)N2CCC[C@@H](Nc3ncc(Cl)cn3)[C@@H]2C)c(-n2nccn2)c1 (relative stereo) [Example 185, ((2 S*,3R*)-3-((5-chloropyrimidin-2-yl)amino)-2-methylpiperidin-1-yl)(4-methoxy-2-(2H-1,2,3-triazol-2-yl)phenyl)methanone] | 259
COc1ccc(C(=O)N2CCC[C@@H](Nc3cnc(Cl)cn3)[C@@H]2C)c(-n2nccn2)c1 (relative stereo) [Example 186, ((2S*,3R*)-3-((5-chloropyrazin-2-yl)amino)-2-methylpiperidin-1-yl)(4-methoxy-2-(2H-1,2,3-triazol-2-yl)phenyl)methanone] | 278
COc1ccc(C(=O)N2CCC[C@@H](Nc3ccc(C(F)(F)F)cn3)[C@@H]2C)c(Cl)n1 (relative stereo) [Example 193, (2-chloro-6-methoxypyridin-3-yl)((2S*,3R*)-2-methyl-3-((5-(trifluoromethyl)pyridin-2-yl)amino)piperidin-1-yl)methanone] | 1100
Cc1cnc(C(=O)N2CCC[C@@H](Nc3nnc(C(F)(F)F)s3)[C@@H]2C)c(-n2nccn2)c1 (relative stereo) [Example 195, ((2S*,3R*)-2-methyl-3-((5-(trifluoromethyl)-1,3,4-thiadiazol-2-yl)amino)piperidin-1-yl)(5-methyl-3-(2H-1,2,3-triazol-2-yl)pyridin-2-yl)methanone] | 357
Cc1ccc(C(=O)N2CCC[C@@H](Nc3nnc(C(F)(F)F)s3)[C@@H]2C)c(-n2nccn2)n1 (relative stereo) [Example 196, (6-methyl-2-(2H-1,2,3-triazol-2-yl)pyridin-3-yl)((2S*,3R*)-2-methyl-3-((5-(trifluoromethyl)-1,3,4-thiadiazol-2-yl)amino)piperidin-1-yl)methanone] | 1800
